Experimental data as given in US20140341857A1, “COMBINATION OF ONCOLYTIC AD[…] HISTONE DEACETYLASE INHIBITORS” (INSTITUT GUSTAVE ROUSSY, priority 2011, published 2014).

Key:
HT29 cells [1] = test: MTT cell survival after oncolytic adenovirus with or without HDACi; assay type: cell-based; settings: HT29, 3 days p.i., co-treatment with VPA and AE18
Experimental: Then the cells were treated with one of these HDACis (at concentrations in the range of IC50/2 and IC50) and transduced with the oncolytic adenovirus Δ24, at increasing multiplicity of infection (MOI). The survival of the cells at day 3 p.i. was evaluated using the MTT assay.
Colon carcinoma cells (HT29, HCT116, SW480, SW620) were plated in quadruplicates on 96-well plates (10^4 cells/well) and were treated with different MOI of Δ24 CRAd (ranging from 0 to 1000 vp/cell), VPA (0, IC25 or IC50) or a combination of CRAd and VPA. After 3 days, cell viability was measured with MTT assay and the results (means+SD) were expressed relative to non-infected cells treated with different VPA doses (0, IC25 and IC50). The results are representative of three experiments.
Colon carcinoma cells (HT29, HCT116) were treated in quadruplicates with Δ24 CRAd (MOI 15.6 vp/cell) without or with VPA (IC25 or IC50) and cell viability was measured at different time points thereafter using a MTT assay. The results (means+SD) were expressed relative to untreated or VPA (0, IC25 and IC50)-treated cells at the same time point. […] They are representative of two experiments.
The effects of a co-treatment with the oncolytic adenovirus Δ24 and the histone deacetylase inhibitor VPA on the survival of HT29 cells 3 days p.i. were compared with those of a co-treatment with VPA and the recombinant adenovirus AE18. […]

Δ24 CRAd = test: CRAd production in HT29 cells, plaque assay on 911 cells; assay type: cell-based; settings: HT29, CRAd MOI 15.6, VPA IC25 and IC50, 3 days
Experimental: Colon cancer HT29 cells (5·10^5) in 6-well plates were infected with Δ24 CRAd (MOI 15.6 vp/cell) alone or in combination with VPA (IC50 and IC25) in adequate medium with 2% FBS. After 1 h, 3 ml of growth medium with or without VPA was added. Then, cells were scrapped and cells and medium were harvested at different times post-infection (from day 1 to day 6). After submission of cells and medium to freeze-thaw cycles, the amount of infectious particles was determined by plaque assay on 911 cells and expressed as plaque forming unit (pfu)/ml.
In a second series of experimentations, HT29 cells (5·10^5 cells/well) in 6-well plates were infected with CRAd (MOI 15.6 vp/cell) with or without VPA (IC50 and IC25) in adequate medium supplemented with 2% FBS. After 1 h, 3 ml of growth medium with or without VPA was added. After 3 days, cells and medium were independently harvested and lysed by freeze-thaw cycles. Then, the amount of infectious particles was measured by plaque assay on 911 cells, and expressed as pfu/ml.

[2] = tested on: E1A and fiber adenoviral proteins; test: Western blot of early (E1A) and late (fiber) adenoviral proteins in HT29 cells; assay type: cell-based
Experimental: For determining viral protein expression, HT29 cells (5·10^5) in MW6 medium were treated with Δ24 CRAd (MOI 15.6 vp/cell), with or without VPA. At different time points p.i. (24 h, 48 h, and 72 h), tumor cells were harvested and protein extracts were prepared in RIPA buffer (10 mM Tris base pH 8.8, NaCl 150 mM, EDTA 1 mM, NP-40 1%, deoxycholic acid 1%) supplemented with mini EDTA proteases (Roche laboratory). In order to quantify the expression of early (E1A) and late (fiber) adenoviral proteins, proteins (25 μg) were run into a NuPage (Invitrogen, France), transferred onto a nitrocellulose membrane, and probed with anti-fiber antibody (AB4 clone 4D2, THERMOSCIENTIFIC), anti-E1A antibody (sc-430, Santa Cruz), or (as a control) anti-actin antibody (Clone AC-15, SIGMA-ALDRICH) followed by HRP-conjugated secondary antibody.

γH2AX = γH2AX expression, Western blot; assay type: cell-based; settings: CRAd MOI 15.6, VPA 10mM (the IC50 of HT29; cell line and time not given)
Experimental: Colon carcinoma HT29 and HCT116 cells (5·10^5) in MW6 were treated with Δ24 CRAd (MOI 15.6 vp/cell), with or without VPA (IC25 and IC50). At indicated time points p.i., the cells were harvested and protein extracts were prepared in RIPA buffer (10 mM Tris base pH 8.8, NaCl 150 mM, EDTA 1mM, NP-40 1%, deoxycholic acid 1%) supplemented with mini EDTA proteases (ROCHE LABORATORY). Protein extracts were sonicated and centrifuged. Then, protein extracts (25 μg) were run into a NuPage (INVITROGEN, France), transferred onto a nitrocellulose membrane, and probed with anti-phospho-H2AX (Ser139) antibody (clone JBW301, MILLIPORE) or anti-actin antibodies (AC-15, SIGMA-ALDRICH) followed by HRP-conjugated secondary antibody. γH2AX was quantified by IMAGE-J software and expressed as arbitrary units relative to untreated cells.

viral hexon protein = test: Immunohistochemistry of viral hexon protein in HT29 tumor xenografts; assay type: in vivo, mice; settings: tumors excised at day 10, VPA 300 mg/kg
Experimental: The effects of VPA on CRAd replication were also tested in vivo in HT29 tumor xenografts of mice injected with PBS, Δ24 CRAd, or VPA (300 mg/kg)+CRAd as described in Example 2 above. Tumors were excised at day 10, and expression of viral hexon protein was evaluated by immunohistochemistry. Tumors were fixed in FineFix (from IGR) paraffin-embedded, and cut into 4-μm-thick sections. Hematoxylin-eosin-safranin staining was performed on all of the xenografts for analysis of morphology. The polyclonal anti-adenovirus hexon protein antibody AB 1056 (CHEMICON INTERNATIONAL, Temecula, Calif.), diluted 1:300, was detected by a biotinylated rabbit antigoat immunoglobulin antibody streptavidin-horseradish peroxidase conjugate (DAKO), and the chromogen diaminobenzidine. Slides were counterstained with hematoxylin.

HT29 cells [3] = test: LDH release cell death assay; assay type: cell-based; settings: HT29, day 3, CRAd MOI 15.6 or VPA IC25/IC50 alone
Description: Colon carcinoma HT29 cells were untreated or treated with CRAd (MOI 15.6 vp/cell), VPA (IC25 or IC50) or both. After 3 days, cell death was quantified by determination of Lactate deshydrogenase (LDH) release in cell supernatant, using Tox Cytotoxicity Assay kit (TOX7, Sigma Aldrich, France). The results were expressed relative to total LDH level obtained with cells treated with identical conditions and permeabilized with triton 0.1%. The results (Mean+SD) are shown on FIG. 7. They are representative of two experiments.

CCCC(CCC)C(=O)O [VPA, Valproic Acid]
effect of VPA on the cytotoxicity of the recombinant adenovirus AE18 (HT29 cells [1]): no effect
viral content in cell-associated and extracellular fractions (Δ24 CRAd): reduction of viral content
E1A expression ([2]; HT29, CRAd MOI 15.6, 24 h, 48 h, 72 h): did not modify E1A expression
expression of the fiber protein ([2]; HT29, CRAd MOI 15.6, day 1): strongly diminished
expression of the fiber protein ([2]; HT29, CRAd MOI 15.6, day 2 and 3): minor effect
level of γH2AX relative to untreated cells (γH2AX): 5.6 fold
amount of hexon protein in the tumor (viral hexon protein): decreased
LDH release compared to untreated cells (HT29 cells [3]): increase in LDH release
